Reference: ChEMBL document CHEMBL1147127, “Halogenated cyclic peptides isolated from the sponge Corticium sp” (J Nat Prod, 2007)

System: HCT-116
Assay: Cytotoxicity against HCT116 cells
Type: cell-based
Conditions: human; call rule not given here

Cn1c(C(=O)NCC(=O)N[C@H]2CNC(=O)[C@@H](Cc3c[nH]c4ccc(Br)cc34)NC(=O)[C@@H](O)CNC(=O)[C@@H](CC(N)=O)NC2=O)cc(Cl)c1Cl [CYCLOCINAMIDE B]
Activity: Not Active
